Results from ChEMBL document CHEMBL5715949, “Discovery of a selective irreversible BMX inhibitor for prostate cancer” (ACS Chem Biol, 2013).
The source made the active and inactive calls. The calls are words filed in the database; no cut-off is given here.

Legend:
[1] = Cytotoxicity against mouse BaF3 cells assessed growth inhibition incubated for 2 to 5 days by CellTiter-Glo assay; assay type: toxicity, cell-based; conditions: time 2-5 day
[2] = molecular target: Dual specificity mitogen-activated protein kinase kinase 2 (Homo sapiens) (UniProt P36507); assay: Inhibition of MEK2 (unknown origin) assessed as remaining activity at 1 uM by Kinome scan method relative to control
Sequence of Dual specificity mitogen-activated protein kinase kinase 2 (Homo sapiens) (P36507 whole entry): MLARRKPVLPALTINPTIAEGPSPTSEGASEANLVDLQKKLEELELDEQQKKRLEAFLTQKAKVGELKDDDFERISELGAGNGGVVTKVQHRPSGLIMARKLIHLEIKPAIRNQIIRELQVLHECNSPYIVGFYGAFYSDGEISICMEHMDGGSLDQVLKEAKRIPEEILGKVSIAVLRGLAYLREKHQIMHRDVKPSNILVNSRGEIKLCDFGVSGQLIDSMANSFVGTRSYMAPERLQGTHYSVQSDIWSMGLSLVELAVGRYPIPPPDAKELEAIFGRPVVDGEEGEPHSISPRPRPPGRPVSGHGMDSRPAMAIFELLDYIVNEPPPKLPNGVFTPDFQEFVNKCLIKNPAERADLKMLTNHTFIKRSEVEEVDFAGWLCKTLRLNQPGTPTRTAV

RV-1 = assay: Antiproliferative activity against human RV-1 cells assessed as reduction in cell viability at 500 to 2500 nM incubated for 5 days in presence of erlotinib by CellTiter-Glo assay; assay type: functional, cell-based; conditions: dose 500-2500 nM, time 5.0 day
[3] = molecular target: Casein kinase I isoform delta (Homo sapiens) (UniProt P48730); assay: Inhibition of CSNK1D (unknown origin) assessed as remaining activity at 1 uM by Kinome scan method relative to control
Sequence of Casein kinase I isoform delta (Homo sapiens) (P48730 whole entry, looked up, canonical isoform): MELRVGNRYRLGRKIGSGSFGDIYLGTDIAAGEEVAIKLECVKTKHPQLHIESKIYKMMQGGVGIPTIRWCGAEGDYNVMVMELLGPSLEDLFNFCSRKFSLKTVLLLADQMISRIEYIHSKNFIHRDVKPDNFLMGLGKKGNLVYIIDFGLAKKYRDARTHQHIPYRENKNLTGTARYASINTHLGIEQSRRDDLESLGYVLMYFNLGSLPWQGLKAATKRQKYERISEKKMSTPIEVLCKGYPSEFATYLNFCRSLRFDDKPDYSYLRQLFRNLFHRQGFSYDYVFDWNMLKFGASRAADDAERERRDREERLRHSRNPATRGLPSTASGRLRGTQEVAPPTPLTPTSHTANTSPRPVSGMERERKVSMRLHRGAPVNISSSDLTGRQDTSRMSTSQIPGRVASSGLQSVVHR

[4] = tested on: Tyrosine-protein kinase ABL1 (Homo sapiens), P00519 [T315I]; assay: Inhibition of ABL1 T315I mutant (unknown origin) assessed as remaining activity at 1 uM by Kinome scan method relative to control
[5] = Inhibition of PI3K/AKT/mTOR signalling pathway in human RV-1 cells assessed as decrease in AKT phosphorylation at S473 residue at 2.5 uM incubated for 4 hrs by immunoblot analysis; assay type: cell-based
[6] = Inhibition of PI3K/AKT/mTOR signalling pathway in human RV-1 cells assessed as decrease in AKT phosphorylation at T308 residue at 2.5 uM incubated for 4 hrs by immunoblot analysis; assay type: cell-based
[7] = tested on: Proto-oncogene tyrosine-protein kinase receptor Ret (Homo sapiens), P07949 [V804L]; assay: Inhibition of RET V804L (unknown origin) assessed as remaining activity at 1 uM by Kinome scan method relative to control
Sequence of Proto-oncogene tyrosine-protein kinase receptor Ret (Homo sapiens), P07949 [V804L] (P07949 whole entry V804L): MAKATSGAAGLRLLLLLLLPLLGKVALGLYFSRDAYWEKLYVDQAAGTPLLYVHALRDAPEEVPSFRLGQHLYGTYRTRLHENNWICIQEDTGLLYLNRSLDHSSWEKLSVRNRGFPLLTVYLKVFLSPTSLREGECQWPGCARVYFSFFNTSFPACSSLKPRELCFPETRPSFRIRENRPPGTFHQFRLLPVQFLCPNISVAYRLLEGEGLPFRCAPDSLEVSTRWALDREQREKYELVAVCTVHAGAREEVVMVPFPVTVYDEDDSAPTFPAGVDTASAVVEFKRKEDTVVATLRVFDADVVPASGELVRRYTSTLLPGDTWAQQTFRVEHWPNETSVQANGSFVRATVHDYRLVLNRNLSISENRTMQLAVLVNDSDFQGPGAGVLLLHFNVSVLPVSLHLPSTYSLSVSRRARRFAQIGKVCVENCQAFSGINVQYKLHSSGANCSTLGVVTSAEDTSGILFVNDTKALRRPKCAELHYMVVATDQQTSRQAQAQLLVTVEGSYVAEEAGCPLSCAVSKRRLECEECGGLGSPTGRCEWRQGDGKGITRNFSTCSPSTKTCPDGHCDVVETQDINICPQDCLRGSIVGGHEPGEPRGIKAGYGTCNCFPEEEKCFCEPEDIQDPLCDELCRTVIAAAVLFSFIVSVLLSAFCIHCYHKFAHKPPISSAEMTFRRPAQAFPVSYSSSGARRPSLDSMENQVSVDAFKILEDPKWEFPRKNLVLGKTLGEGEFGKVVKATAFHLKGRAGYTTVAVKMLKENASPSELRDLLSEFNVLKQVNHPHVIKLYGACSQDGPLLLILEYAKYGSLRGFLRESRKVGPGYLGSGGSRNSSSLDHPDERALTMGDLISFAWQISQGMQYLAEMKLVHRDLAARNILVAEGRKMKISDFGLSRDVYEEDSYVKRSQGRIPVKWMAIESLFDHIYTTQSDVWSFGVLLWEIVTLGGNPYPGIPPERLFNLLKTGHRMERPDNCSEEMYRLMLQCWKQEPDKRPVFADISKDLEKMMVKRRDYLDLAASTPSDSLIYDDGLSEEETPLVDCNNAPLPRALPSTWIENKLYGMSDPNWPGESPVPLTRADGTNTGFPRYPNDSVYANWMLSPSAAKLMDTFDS

[8] = Inhibition of PI3K/AKT/mTOR signalling pathway in human RV-1 cells assessed as decrease in 4EBP phosphorylation at T37/46 residue at 2.5 uM incubated for 5 days in presence of MK2206 by immunoblot analysis; assay type: cell-based; conditions: time 5.0 day
[9] = molecular target: Tyrosine-protein kinase TXK (Homo sapiens) (UniProt P42681); assay: Inhibition of TXK (unknown origin) assessed as remaining activity at 1 uM by Kinome scan method relative to control
Sequence of Tyrosine-protein kinase TXK (Homo sapiens) (P42681 whole entry, canonical isoform): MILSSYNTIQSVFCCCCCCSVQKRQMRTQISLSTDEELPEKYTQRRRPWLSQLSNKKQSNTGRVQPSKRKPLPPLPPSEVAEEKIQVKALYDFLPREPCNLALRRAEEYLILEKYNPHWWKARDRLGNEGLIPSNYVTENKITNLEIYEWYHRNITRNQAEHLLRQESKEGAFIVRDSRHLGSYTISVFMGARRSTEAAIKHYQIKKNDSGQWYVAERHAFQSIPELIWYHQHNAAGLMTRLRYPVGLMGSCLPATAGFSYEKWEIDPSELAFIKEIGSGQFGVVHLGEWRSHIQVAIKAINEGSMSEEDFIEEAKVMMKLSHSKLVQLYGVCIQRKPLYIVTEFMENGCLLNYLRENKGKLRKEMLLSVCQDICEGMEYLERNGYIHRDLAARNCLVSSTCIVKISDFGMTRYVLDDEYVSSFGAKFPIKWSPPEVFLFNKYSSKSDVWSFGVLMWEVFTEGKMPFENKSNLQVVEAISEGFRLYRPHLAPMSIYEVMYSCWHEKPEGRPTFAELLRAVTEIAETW

[10] = molecular target: Phosphorylase b kinase gamma catalytic chain, liver/testis isoform (Homo sapiens) (UniProt P15735); assay: Inhibition of PHKG2 (unknown origin) assessed as remaining activity at 1 uM by Kinome scan method relative to control
Sequence of Phosphorylase b kinase gamma catalytic chain, liver/testis isoform (Homo sapiens) (P15735 whole entry, the tested form may be a part, canonical isoform): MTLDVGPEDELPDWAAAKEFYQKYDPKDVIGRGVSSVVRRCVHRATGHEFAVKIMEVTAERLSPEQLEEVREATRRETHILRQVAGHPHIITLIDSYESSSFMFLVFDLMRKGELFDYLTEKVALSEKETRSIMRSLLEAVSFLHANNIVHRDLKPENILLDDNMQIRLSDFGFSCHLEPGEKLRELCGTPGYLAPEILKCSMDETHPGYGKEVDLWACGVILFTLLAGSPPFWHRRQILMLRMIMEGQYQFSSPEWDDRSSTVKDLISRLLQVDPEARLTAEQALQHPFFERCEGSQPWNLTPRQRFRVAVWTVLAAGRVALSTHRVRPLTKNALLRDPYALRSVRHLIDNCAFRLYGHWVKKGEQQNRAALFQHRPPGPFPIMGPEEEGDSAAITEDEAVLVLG

[11] = molecular target: Tyrosine-protein kinase JAK1 (Homo sapiens) (UniProt P23458); assay: Inhibition of JAK1 JH2 domain (unknown origin) assessed as remaining activity at 1 uM by Kinome scan method relative to control
Sequence of Tyrosine-protein kinase JAK1 (Homo sapiens) (P23458 whole entry, the tested form may be a part): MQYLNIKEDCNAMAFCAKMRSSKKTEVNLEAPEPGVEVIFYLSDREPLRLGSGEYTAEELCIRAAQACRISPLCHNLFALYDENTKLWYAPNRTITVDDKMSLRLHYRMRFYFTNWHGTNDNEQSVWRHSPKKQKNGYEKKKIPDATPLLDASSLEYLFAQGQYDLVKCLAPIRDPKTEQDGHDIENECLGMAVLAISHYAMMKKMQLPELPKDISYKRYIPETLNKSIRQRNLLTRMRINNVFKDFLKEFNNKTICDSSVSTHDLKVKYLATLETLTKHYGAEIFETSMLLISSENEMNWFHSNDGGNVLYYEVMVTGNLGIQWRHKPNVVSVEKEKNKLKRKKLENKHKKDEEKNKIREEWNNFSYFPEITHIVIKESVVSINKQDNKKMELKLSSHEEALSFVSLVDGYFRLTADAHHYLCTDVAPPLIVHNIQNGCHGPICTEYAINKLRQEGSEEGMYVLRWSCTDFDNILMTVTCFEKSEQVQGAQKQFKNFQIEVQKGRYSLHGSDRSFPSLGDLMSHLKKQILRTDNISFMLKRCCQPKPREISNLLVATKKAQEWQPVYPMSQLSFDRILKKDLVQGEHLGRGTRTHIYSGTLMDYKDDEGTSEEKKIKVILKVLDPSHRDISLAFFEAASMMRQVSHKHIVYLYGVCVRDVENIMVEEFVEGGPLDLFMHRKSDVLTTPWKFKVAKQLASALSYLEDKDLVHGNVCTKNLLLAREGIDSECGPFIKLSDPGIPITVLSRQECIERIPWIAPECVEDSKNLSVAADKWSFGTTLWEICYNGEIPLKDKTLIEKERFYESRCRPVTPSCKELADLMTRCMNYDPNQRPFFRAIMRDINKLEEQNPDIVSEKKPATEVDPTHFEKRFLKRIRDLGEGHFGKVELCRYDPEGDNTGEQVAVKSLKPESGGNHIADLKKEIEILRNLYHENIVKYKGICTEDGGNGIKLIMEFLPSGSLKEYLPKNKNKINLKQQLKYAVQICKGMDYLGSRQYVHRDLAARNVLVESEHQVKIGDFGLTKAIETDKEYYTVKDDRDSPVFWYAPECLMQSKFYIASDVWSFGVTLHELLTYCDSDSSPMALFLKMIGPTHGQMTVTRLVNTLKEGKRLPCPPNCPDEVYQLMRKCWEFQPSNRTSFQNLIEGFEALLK

[12] = molecular target: Tyrosine-protein kinase JAK1 (Homo sapiens) (UniProt P23458); assay: Inhibition of JAK1 JH1 domain (unknown origin) assessed as remaining activity at 1 uM by Kinome scan method relative to control
[13] = molecular target: Fibroblast growth factor receptor 1 (Homo sapiens) (UniProt P11362); assay: Inhibition of FGFR1 (unknown origin) assessed as remaining activity at 1 uM by Kinome scan method relative to control
Sequence of Fibroblast growth factor receptor 1 (Homo sapiens) (P11362 22-822 limits assumed): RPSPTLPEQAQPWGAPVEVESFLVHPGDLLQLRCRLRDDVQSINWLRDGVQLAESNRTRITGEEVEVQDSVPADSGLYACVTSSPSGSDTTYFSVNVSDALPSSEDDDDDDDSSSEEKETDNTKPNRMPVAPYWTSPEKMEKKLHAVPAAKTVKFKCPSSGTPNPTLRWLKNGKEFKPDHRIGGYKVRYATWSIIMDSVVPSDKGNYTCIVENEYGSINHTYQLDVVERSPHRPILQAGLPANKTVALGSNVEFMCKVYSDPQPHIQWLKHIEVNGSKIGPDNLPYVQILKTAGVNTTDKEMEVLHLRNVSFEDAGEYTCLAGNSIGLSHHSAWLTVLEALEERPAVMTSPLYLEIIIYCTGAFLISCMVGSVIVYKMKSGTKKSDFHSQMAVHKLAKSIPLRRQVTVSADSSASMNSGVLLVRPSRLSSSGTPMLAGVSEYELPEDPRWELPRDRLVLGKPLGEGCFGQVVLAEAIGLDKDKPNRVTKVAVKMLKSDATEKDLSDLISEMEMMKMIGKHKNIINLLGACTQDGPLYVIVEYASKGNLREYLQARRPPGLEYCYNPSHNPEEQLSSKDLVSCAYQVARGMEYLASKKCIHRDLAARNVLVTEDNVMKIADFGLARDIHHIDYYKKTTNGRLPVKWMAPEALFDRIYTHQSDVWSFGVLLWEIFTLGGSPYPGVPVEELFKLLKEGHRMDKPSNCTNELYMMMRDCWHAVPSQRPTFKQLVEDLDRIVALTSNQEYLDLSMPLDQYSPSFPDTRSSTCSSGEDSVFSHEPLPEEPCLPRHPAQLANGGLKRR

Q: Which GI50 [1] does the source give for `C=CC(=O)Nc1cc(-n2c(=O)ccc3cnc4ccc(-c5ccc(NS(C)(=O)=O)cc5)cc4c32)ccc1C` here?
A: The GI50 was over 10 µM.

Q: And the Activity [2]?
A: Its Activity is 96%.

Q: What about the Activity (RV-1) of the same molecule?
A: Its Activity is “Active”.

Q: And the Activity [3]?
A: Its Activity is 84%.

Q: What about the Activity [4] of the same molecule?
A: Its Activity is 87%.

Q: And the inhibition [5]?
A: The inhibition was “inactive”.

Q: What about the inhibition [6] of the same molecule?
A: The inhibition was “inactive”.

Q: And the Activity [7]?
A: Its Activity is 79%.

Q: And the inhibition [8]?
A: The inhibition was “Active”.

Q: And the Activity [9]?
A: Its Activity is 25%.

Q: What about the Activity [10] of the same molecule?
A: The Activity was 74%.

Q: And the Activity [11]?
A: Its Activity is 99%.

Q: What about the Activity [12] of the same molecule?
A: The Activity was 87%.

Q: What about the Activity [13] of the same molecule?
A: The Activity was 92%.
